#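 1) Cells in 96-well plates. 2) Compound, 48 h, 5 concentrations. 3) Linear interpolation between surrounding doses. 4) Unreached endpoint = highest concentration. GI50 = concentration required for 50% inhibition of growth.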 The source made the active and inactive calls. No stated cut-off is given here; in the data, active = GI50 up to about 1.1 µM and inactive = higher.
# Columns and labels:
# Test in all cases: NCI tumour cell line growth inhibition, 48 h
# SW-620 = system: SW-620
# SF-295 = system: SF-295
# A549 = system: A549
# OVCAR-8 = system: OVCAR-8
# HOP-62 = system: HOP-62
# SR = system: SR
# SF-268 = system: SF-268
# MOLT-4 = system: MOLT-4
# DMS-273 = system: DMS-273
# TK-10 = system: TK-10
# SNB-19 = system: SNB-19
# COLO 205 = system: COLO 205
# NCI-H226 = system: NCI-H226
# HCT-116 = system: HCT-116
# UACC-257 = system: UACC-257
# K562 = system: K562
# PC-3 = system: PC-3
# MCF7 = system: MCF7
# NCI/ADR-RES = system: NCI/ADR-RES
# MDA-MB-435 = system: MDA-MB-435
Structure (SMILES),GI50 (SW-620),GI50 (SF-295),GI50 (A549),GI50 (OVCAR-8),GI50 (HOP-62),GI50 (SR),GI50 (SF-268),GI50 (MOLT-4),GI50 (DMS-273),GI50 (TK-10),GI50 (SNB-19),GI50 (COLO 205),GI50 (NCI-H226),GI50 (HCT-116),GI50 (UACC-257),GI50 (K562),GI50 (PC-3),GI50 (MCF7),GI50 (NCI/ADR-RES),GI50 (MDA-MB-435)
COc1ccc2ccccc2c1CN1CCOCCOCCN(Cc2c(OC)ccc3ccccc23)CCOCCOCC1,> 62.1 µM (inactive),> 100 µM (inactive),98.2 µM (inactive),> 100 µM (inactive),> 100 µM (inactive),0.514 µM (active),> 80.5 µM (inactive),> 49.8 µM (inactive),24.2 µM (inactive),> 100 µM (inactive),> 100 µM (inactive),> 90.4 µM (inactive),99.3 µM (inactive),25.1 µM (inactive),45.2 µM (inactive),> 25.6 µM (inactive),–,–,–,–
COc1cccc2c1C(=O)c1c(O)c3c(c(O)c1C2=O)CC(O)(C(O)CO)CC3OC1CC(N2CCOCC2)C(O)C(C)O1 (stereo not drawn),0.00144 µM (active),0.00206 µM (active),0.00108 µM (active),0.00182 µM (active),0.00315 µM (active),0.00214 µM (active),0.00231 µM (active),–,< 0.001 µM (active),0.00377 µM (active),0.00404 µM (active),0.00177 µM (active),0.0118 µM (active),< 0.001 µM (active),0.00338 µM (active),0.00412 µM (active),0.0123 µM (active),0.0223 µM (active),0.0162 µM (active),0.00883 µM (active)
CN(C)NC(=O)NC12CC3CC(CC(C3)C1)C2,> 100 µM (inactive),> 100 µM (inactive),> 100 µM (inactive),> 100 µM (inactive),–,> 100 µM (inactive),> 100 µM (inactive),> 100 µM (inactive),> 100 µM (inactive),> 10 µM (inactive),> 100 µM (inactive),> 100 µM (inactive),> 100 µM (inactive),> 100 µM (inactive),> 100 µM (inactive),> 100 µM (inactive),–,–,–,–
COC(=O)c1nn(C(=N)c2ccc(Cl)cc2)c2c1CCCCC2,> 100 µM (inactive),> 100 µM (inactive),> 100 µM (inactive),–,> 100 µM (inactive),> 100 µM (inactive),> 100 µM (inactive),> 100 µM (inactive),> 100 µM (inactive),> 100 µM (inactive),> 100 µM (inactive),> 100 µM (inactive),> 100 µM (inactive),> 100 µM (inactive),> 100 µM (inactive),> 100 µM (inactive),–,–,–,–
O=C(/C=C/c1ccc([N+](=O)[O-])cc1)c1ccc(NCc2nc3ccccc3[nH]2)cc1,2.25 µM (inactive),3.86 µM (inactive),–,2.68 µM (inactive),10 µM (inactive),3.34 µM (inactive),5.71 µM (inactive),3.51 µM (inactive),3.05 µM (inactive),5.96 µM (inactive),3.56 µM (inactive),2.07 µM (inactive),–,–,3.41 µM (inactive),2.3 µM (inactive),–,–,–,–
Oc1ccc2ccccc2c1/N=N/c1ccsc1,> 100 µM (inactive),> 100 µM (inactive),> 100 µM (inactive),> 100 µM (inactive),> 100 µM (inactive),> 100 µM (inactive),> 100 µM (inactive),> 100 µM (inactive),> 100 µM (inactive),> 100 µM (inactive),> 100 µM (inactive),> 100 µM (inactive),> 100 µM (inactive),42.7 µM (inactive),> 100 µM (inactive),> 100 µM (inactive),–,–,–,–
Cc1c(/C=N/N(C)C)oc2c1cc(O)c1ncccc12,4.61 µM (inactive),9.91 µM (inactive),5.01 µM (inactive),4.07 µM (inactive),7.35 µM (inactive),2.77 µM (inactive),4.01 µM (inactive),2.59 µM (inactive),5.31 µM (inactive),28.8 µM (inactive),14.1 µM (inactive),35.8 µM (inactive),13.2 µM (inactive),2.99 µM (inactive),5.36 µM (inactive),3.86 µM (inactive),–,–,–,–
CC(C)N(C(=O)C12C3C4C5(C(=O)O)C(C1C35I)C42C(=O)O)C(C)C (stereo not drawn),> 100 µM (inactive),> 100 µM (inactive),> 100 µM (inactive),> 100 µM (inactive),> 100 µM (inactive),> 100 µM (inactive),> 100 µM (inactive),> 100 µM (inactive),> 100 µM (inactive),> 100 µM (inactive),> 100 µM (inactive),> 100 µM (inactive),> 100 µM (inactive),> 100 µM (inactive),> 100 µM (inactive),> 100 µM (inactive),–,–,–,–
N=C(Nc1nc(-c2ccccn2)cc2ccccc12)c1ccccn1,0.0182 µM (active),0.326 µM (active),0.0733 µM (active),< 0.0179 µM (active),0.0789 µM (active),–,0.065 µM (active),0.01 µM (active),0.00512 µM (active),0.249 µM (active),0.834 µM (active),0.011 µM (active),0.106 µM (active),0.01 µM (active),< 0.0172 µM (active),0.0108 µM (active),< 0.0129 µM (active),0.0106 µM (active),< 0.0185 µM (active),0.12 µM (active)
COc1ccc2c(c1)[n+]([O-])c(/C(C)=N/NC(=O)CC#N)c[n+]2[O-],11.1 µM (inactive),> 100 µM (inactive),> 100 µM (inactive),> 100 µM (inactive),> 100 µM (inactive),> 100 µM (inactive),> 100 µM (inactive),> 100 µM (inactive),> 100 µM (inactive),> 100 µM (inactive),> 100 µM (inactive),83.4 µM (inactive),> 100 µM (inactive),83.9 µM (inactive),> 100 µM (inactive),> 100 µM (inactive),–,–,–,–
O=C1/C(=C/c2ccccc2)CN(C(=O)CCN2CCCC2)C/C1=C\c1ccccc1,0.23 µM (active),1.09 µM (active),3.91 µM (inactive),1.53 µM (inactive),7.31 µM (inactive),0.219 µM (active),1.72 µM (inactive),0.356 µM (active),1.75 µM (inactive),3.12 µM (inactive),2.51 µM (inactive),1.53 µM (inactive),6 µM (inactive),0.355 µM (active),2.45 µM (inactive),0.287 µM (active),0.724 µM (active),0.64 µM (active),0.27 µM (active),1.28 µM (inactive)
CC1(C2CCC3(C)OC3C2)CO1 (stereo not drawn),> 100 µM (inactive),> 100 µM (inactive),> 100 µM (inactive),> 100 µM (inactive),> 100 µM (inactive),> 100 µM (inactive),> 100 µM (inactive),> 100 µM (inactive),> 100 µM (inactive),> 100 µM (inactive),> 100 µM (inactive),> 100 µM (inactive),> 100 µM (inactive),> 100 µM (inactive),> 100 µM (inactive),> 100 µM (inactive),–,–,–,–
CCOP(=S)(OCC)Oc1ccc2c(c1)OC(=O)C1(Cl)C2(C)C2(Cl)C(=O)Oc3cc(OP(=S)(OCC)OCC)ccc3C12C (stereo not drawn),16.7 µM (inactive),14.7 µM (inactive),25.5 µM (inactive),16.3 µM (inactive),18.3 µM (inactive),–,6.08 µM (inactive),20.9 µM (inactive),20.3 µM (inactive),25.5 µM (inactive),4.8 µM (inactive),19.1 µM (inactive),15.1 µM (inactive),12.3 µM (inactive),17.7 µM (inactive),27.3 µM (inactive),–,–,–,–
COC(=O)C1=C(c2cc(OC)c(OC)c(OC)c2)OC(c2ccc(OC)c(OC)c2)C1 (stereo not drawn),33.5 µM (inactive),35.6 µM (inactive),46.8 µM (inactive),47.9 µM (inactive),59.3 µM (inactive),51.6 µM (inactive),55.8 µM (inactive),18.9 µM (inactive),45.4 µM (inactive),54.3 µM (inactive),–,19.1 µM (inactive),96.6 µM (inactive),43.8 µM (inactive),40.6 µM (inactive),45.1 µM (inactive),–,–,–,–
Cc1ccc(-n2c3nc(=O)n(C)c(=O)c-3nc3ccccc32)c(C)c1,5.57 µM (inactive),10.7 µM (inactive),4.74 µM (inactive),8.18 µM (inactive),24.3 µM (inactive),–,15.4 µM (inactive),13.9 µM (inactive),4.34 µM (inactive),13.2 µM (inactive),5.28 µM (inactive),3.46 µM (inactive),14.9 µM (inactive),11.8 µM (inactive),3.6 µM (inactive),16.4 µM (inactive),–,–,–,–
CC12C(=CC(=O)CC1SCCS(=O)(=O)O)C(C#N)=C(N)N2c1ccc(Cl)c(Cl)c1 (stereo not drawn),78.9 µM (inactive),> 100 µM (inactive),> 100 µM (inactive),> 100 µM (inactive),> 100 µM (inactive),> 100 µM (inactive),> 100 µM (inactive),> 100 µM (inactive),> 100 µM (inactive),> 100 µM (inactive),> 100 µM (inactive),> 100 µM (inactive),> 100 µM (inactive),> 100 µM (inactive),> 100 µM (inactive),> 100 µM (inactive),–,–,–,–
CN(C)C(=S)/N=c1\ss/c(=N\S(=O)(=O)c2ccccc2)n1N(C)C,> 100 µM (inactive),–,> 100 µM (inactive),> 100 µM (inactive),> 100 µM (inactive),41.2 µM (inactive),69.8 µM (inactive),> 100 µM (inactive),92 µM (inactive),> 100 µM (inactive),> 100 µM (inactive),> 100 µM (inactive),> 100 µM (inactive),75 µM (inactive),> 100 µM (inactive),59.8 µM (inactive),–,–,–,–

# Source: ChEMBL document CHEMBL1201862, “PubChem BioAssay data set” (2004)
